Measurements reported in US10329309B2, “3-(3H-imidazo[4,5-B]pyridin-2-yl)-1H-pyrazolo[4,3-B]pyridines and therapeutic uses thereof” (Samumed, LLC, priority 2015, dated 2019).

Experiments:
Assay type in all cases: cell-based
[1] = test system: Wnt activity (Sp5-Luc reporter, SW480 colon carcinoma cells); assay: Screening assay for Wnt activity: Sp5-Luc reporter gene assay in SW480 cells; settings: Homo sapiens, overnight incubation, 10-point dose-response from 10 μM
Source text: The screening assay for Wnt activity is described as follows. Reporter cell lines can be generated by stably transducing cancer cell lines (e.g., colon cancer) or primary cells (e.g., IEC-6 intestinal cells) with a lentiviral construct that includes a Wnt-responsive promoter driving expression of the firefly luciferase gene.
SW480 colon carcinoma cells were transduced with a lentiviral vector expressing luciferase with a human Sp5 promoter consisting of a sequence of eight TCF/LEF binding sites. SW480 cells stably expressing the Sp5-Luc reporter gene and a hygromycin resistance gene were selected by treatment with 150 μg/mL of hygromycin for 7 days. These stably transduced SW480 cells were expanded in cell culture and used for all further screening activities. Each compound was dissolved in DMSO as a 10 mM stock and used to prepare compound source plates. Serial dilution (1:3, 10-point dose-response curves starting from 10 μM) and compound transfer was performed using the ECHO 550 (Labcyte, Sunnyvale, Calif.) into 384-well white solid bottom assay plates (Greiner Bio-One) with appropriate DMSO backfill for a final DMSO concentration of 0.1%. For Sp5-Luc reporter gene assays, the cells were plated at 4,000 cells/well in 384-well plates with medium containing 1% fetal bovine serum and incubated overnight at 37° C. and 5% CO2. Following incubation, 20 μl of BrightGlo luminescence reagent (Promega) was added to each well of the 384-well assay plates. The plates were placed on an orbital shaker for 2 min and then luminescence was quantified using the Envision (Perkin Elmer) plate reader. Readings were normalized to DMSO only treated cells, and normalized activities were utilized for EC50 calculations using the dose-response log (inhibitor) vs. response -variable slope (four parameters) nonlinear regression feature available in GraphPad Prism 5.0 (or Dotmatics). For EC50 of >10 μM, the percent inhibition at 10 μM is provided.

SW480 colon cancer cells = assay: Cell viability assay (CellTiter-Blue), four days; settings: Homo sapiens, 96 h, CellTiter-Blue cell viability
Method: Representative compounds were screened using the following assay procedure to assess the effect on cell viability as described below.
Each compound was dissolved in DMSO as a 10 mM stock and used to prepare compound source plates. Serial dilution (1:3, 8-point dose-response curves from 10 μM to 0.0045 μM) and compound transfer was performed using the ECHO 550 (Labcyte, Sunnyvale, Calif.) into 96-well clear bottom, black-walled plates (Corning-Costar).
Approximately 2×10^3 SW480 colon cancer cells were seeded into each well and allowed to incubate in the presence or absence of compound for four days at 37° C./5% CO2. Eight replicates of DMSO-treated cells served as controls and cells treated with compound were performed in duplicate.
After incubation, 20 μL of CellTiter-Blue (Promega) was added to each well allowed to incubate for approximately 3 hours. This reagent was a buffered solution which contains resazurin, metabolically active cells were able to reduce rezarurin (blue) into resorufin (pink) which was highly fluorescent. This measured fluorescence was used as a readout for cell viability.
After incubation, the plates were read at Ex 560 nm Em 590 nm (Cytation 3, BioTek). Dose-response curves were generated and EC50 concentration values were calculated using non-linear regression curve fit in the GraphPad Prism (San Diego, Calif.) or Dotmatics' Studies Software (Bishops Stortford, UK). For EC50 of >10 μM, the percent inhibition at 10 μM is provided.

[2] = test system: primary human fibroblasts derived from IPF patients (LL29 cells), α-smooth muscle actin (αSMA); assay: Inhibition of the fibrotic process: TGF-β1-treated primary human fibroblasts from IPF patients, αSMA staining; settings: Fibroblast, 96 h, LL29 fibroblasts from IPF patients, TGF-β1 20 ng/mL, 4 days, inhibition of fibrotic process
Source text: Representative compounds were screened using primary human fibroblasts (derived from IPF patients) treated with TGF-β1 to determine their ability to inhibit the fibrotic process.
Primary human fibroblasts derived from IPF patients (LL29 cells) [^1Xiaoqiu Liu, et. al., “Fibrotic Lung Fibroblasts Show Blunted Inhibition by cAMP Due to Deficient cAMP Response Element-Binding Protein Phosphorylation”, Journal of Pharmacology and Experimental Therapeutics (2005), 315(2), 678-687; ^2Watts, K. L., et. al., “RhoA signaling modulates cyclin D1 expression in human lung fibroblasts; implications for idiopathic pulmonary fibrosis”, Respiratory Research (2006), 7(1), 88] were obtained from American Type Culture Collection (ATCC) and expanded in F12 medium supplemented with 15% Fetal Bovine Serum and Penicillin/Streptomycin.
Each compound was dissolved in DMSO as a 10 mM stock and used to prepare compound source plates. Serial dilution (1:2, 11-point dose-response curves from 10 μM to 1.87 nM) and compound transfer was performed using the ECHO 550 (Labcyte, Sunnyvale, Calif.) into 384-well clear bottom assay plates (Greiner Bio-One) with appropriate DMSO backfill for a final DMSO concentration of 0.1%. LL29 cells are plated at 1,500 cells/well in 80 μL/well F12 medium supplemented with 1% Fetal Bovine Serum. One hour after addition of the cells, TGF-β1 (Peprotech; 20 ng/mL) was added to the plates to induce fibrosis (ref. 1 and 2 above). Wells treated with TGF-β1 and containing DMSO were used as controls. Cells were incubated at 37° C. and 5% CO2 for 4 days. Following incubation for 4 days, SYTOX green nucleic acid stain (Life Technologies [Thermo Fisher Scientific]) was added to the wells at a final concentration of 1 μM and incubated at room temperature for 30 min. Cells were then fixed using 4% formaldehyde (Electron Microscopy Sciences), washed 3 times with PBS followed by blocking and permeabilization using 3% Bovine Serum Albumin (BSA; Sigma) and 0.3% Triton X-100 (Sigma) in PBS. Cells were then stained with antibody specific to α-smooth muscle actin (αSMA; Abcam) (ref. 1 and 2 above) in 3% Bovine Serum Albumin (BSA; Sigma) and 0.3% Triton X-100 (Sigma) in PBS, and incubated overnight at 4° C. Cells were then washed 3 times with PBS, followed by incubation with Alexa Flor-647 conjugated secondary antibody (Life Technologies [Thermo Fisher Scientific]) and DAPI at room temperature for 1 hour. Cells were then washed 3 times with PBS and plates were sealed for imaging. αSMA staining was imaged by excitation at 630 nm and emission at 665 nm and quantified using the Compartmental Analysis program on the CellInsight CX5 (Thermo Scientific). Dead or apoptotic cells were excluded from analysis based on positive SYTOX green staining. % of total cells positive for αSMA were counted in each well and normalized to the average of 11 wells treated with TGF-β1 on the same plate using Dotmatics' Studies Software. The normalized averages (fold change over untreated) of 3 replicate wells for each compound concentration were used to create dose-responses curves and EC50 values were calculated using non-linear regression curve fit in the Dotmatics' Studies Software. For EC50 of >10 μM, the percent inhibition at 10 μM is provided.

IL-6 (THP-1 cells) = assay: Inhibition of IL-6 in LPS-stimulated THP-1 monocytes (HTRF); settings: Homo sapiens, LPS 500 ng/mL, IL-6 by HTRF
Method: Human monocyte cell line (THP-1 cells; Catalog # TIB-202, ATCC, Manassas, Va.) were cultured in Roswell Park Memorial Institute (RPMI) 1640 Medium (Catalog #21870-100, Buffalo, N.Y.) with 1% L-glutamine, 1% HEPES, 1% Sodium Pyruvate, 2% Sodium Bicarbonate supplemented with 100 units/mL penicillin, 50 μg/mL streptomycin, 2-mercaptoethanol (0.05 mM) [basal medium] and 10% fetal bovine serum (Catalog #16140089, Life Technologies, Carlsbad, Calif.) at 37° C. and 5% CO2.
THP-1 cells were cultured in basal media with 1% FBS for 24 hours before the start of the assay. Each compound was dissolved in DMSO as a 10 mM stock and used to prepare compound source plates. Serial dilution (1:3, 10-point dose-response curves starting from 10 μM) and compound transfer was performed using the ECHO 550 (Labcyte, Sunnyvale, Calif.) into 384-well white low volume assay plates (Greiner Bio-One) with appropriate DMSO backfill for a final DMSO concentration of 0.1%. THP-1 cells were plated at 5000 cells/well in the 384-well plates and incubated at 37° C. for 2 h. 500 ng/mL of LPS was added after 2 hours and cells were incubated for another 22 hours at 37° C. Plates were spun in a centrifuge for 1 minute at […] and a mixture of anti-IL6 XL665, and anti-IL6 Cryptate diluted in reconstitution buffer (Cisbio Inc.) was added to each well. Following incubation for 3 hrs at room temperature, Homogeneous Time-Resolved Fluorescence (HTRF) was measured using the Envision (Perkin Elmer) at 665 nm and […]. The ratio of fluorescence at 665 nm to 620 nm was used as a readout for IL6 quantification. All samples were processed in duplicate. Readings were normalized to DMSO treated cells and normalized activities were utilized for EC50 calculations using the dose-response log (inhibitor) vs. response -variable slope (four parameters) nonlinear regression feature available in GraphPad Prism 5.0 (or Dotmatics). For EC50 of >10 μM, the percent inhibition at 10 μM is provided.

Structure (SMILES) | EC50 [1] [µM] | EC50 (SW480 colon cancer cells) [µM] | EC50 [2] [µM] | EC50 (IL-6 (THP-1 cells)) [µM]
Fc1ccccc1-c1ccnc2[nH]c(-c3n[nH]c4ccc(-c5cncc(CNCC6CCCC6)c5)nc34)nc12 [Compound 81, 1-Cyclopentyl-N-((5-(3-(7-(2-fluorophenyl)-3H-imidazo[4,5-b]pyridin-2-yl)-1H-pyrazolo[4,3-b]pyridin-5-yl)pyridin-3-yl)methyl)methanamine] | 1.12 | 2.64 | 1.6 | 5.75
c1ccc(CNCc2cncc(-c3ccc4[nH]nc(-c5nc6c(-c7cccnc7)ccnc6[nH]5)c4n3)c2)cc1 [Compound 108, N-Benzyl-1-(5-(3-(7-(pyridin-3-yl)-3H-imidazo[4,5-b]pyridin-2-yl)-1H-pyrazolo[4,3-b]pyridin-5-yl)pyridin-3-yl)methanamine] | 4.86 | 3.32 | 8.89 | 0.131
FC1(F)CCN(Cc2cncc(-c3ccc4[nH]nc(-c5nc6c(N7CCCCC7)ccnc6[nH]5)c4n3)c2)C1 [Compound 194, 5-(5-((3,3-Difluoropyrrolidin-1-yl)methyl)pyridin-3-yl)-3-(7-(piperidin-1-yl)-3H-imidazo[4,5-b]pyridin-2-yl)-1H-pyrazolo[4,3-b]pyridine] | 4.13 | 0.832 | 1.19 | 5.42
c1ccc(-c2ccc3[nH]nc(-c4nc5cccnc5[nH]4)c3n2)nc1 [Compound 280, 3-(3H-Imidazo[4,5-b]pyridin-2-yl)-5-(pyridin-2-yl)-1H-pyrazolo[4,3-b]pyridine] | 0.687 | 2.29 | 3.88 | 0.115
c1ccc(CNCc2cncc(-c3ccc4[nH]nc(-c5nc6c(-c7ccsc7)ccnc6[nH]5)c4n3)c2)cc1 [Compound 304, N-Benzyl-1-(5-(3-(7-(thiophen-3-yl)-3H-imidazo[4,5-b]pyridin-2-yl)-1H-pyrazolo[4,3-b]pyridin-5-yl)pyridin-3-yl)methanamine] | 1.97 | 1.4 | 1.34 | 4.26
c1cc(-c2ccoc2)c2nc(-c3n[nH]c4ccc(-c5cncc(CNCC6CCCC6)c5)nc34)[nH]c2n1 [Compound 333, 1-Cyclopentyl-N-((5-(3-(7-(furan-3-yl)-3H-imidazo[4,5-b]pyridin-2-yl)-1H-pyrazolo[4,3-b]pyridin-5-yl)pyridin-3-yl)methyl)methanamine] | 2.72 | 2.59 | 1.42 | 2.62
c1csc(-c2ccnc3[nH]c(-c4n[nH]c5ccc(-c6ccncc6)nc45)nc23)c1 [Compound 354, 5-(Pyridin-4-yl)-3-(7-(thiophen-2-yl)-3H-imidazo[4,5-b]pyridin-2-yl)-1H-pyrazolo[4,3-b]pyridine] | 0.731 | 0.405 | 0.387 | 1.39
CN(C)CCNc1cc(F)cc(-c2ccnc3[nH]c(-c4n[nH]c5ccc(-c6cncc(CNCC7CCCC7)c6)nc45)nc23)c1 [Compound 473, N^1-(3-(2-(5-(5-(((Cyclopentylmethyl)amino)methyl)pyridin-3-yl)-1H-pyrazolo[4,3-b]pyridin-3-yl)-3H-imidazo[4,5-b]pyridin-7-yl)-5-fluorophenyl)-N^2,N^2-dimethylethane-1,2-diamin] | 3.64 | 2.83 | 1.53 | 2.62
Oc1cncc(-c2ccc3[nH]nc(-c4nc5c(N6CCCCC6)ccnc5[nH]4)c3n2)c1 [Compound 613, 5-(3-(7-(Piperidin-1-yl)-3H-imidazo[4,5-b]pyridin-2-yl)-1H-pyrazolo[4,3-b]pyridin-5-yl)pyridin-3-ol] | 3.29 | 3.56 | 2.44 | 9.18
CN1CCN(c2ccnc3[nH]c(-c4n[nH]c5ccc(-c6cncc(OCc7ccccc7)c6)nc45)nc23)CC1 [Compound 646, 5-(5-(Benzyloxy)pyridin-3-yl)-3-(7-(4-methylpiperazin-1-yl)-3H-imidazo [4,5-b]pyridin-2-yl)-1H-pyrazolo[4,3-b]pyridine] | 1.81 | 1.16 | 1.71 | 1.5
